Source: patent US20250090174A1, “LEFT ATRIAL APPENDAGE CLOSURE DEVICE WITH DRUG-ELUTING COMPOSITION” (BOSTON SCIENTIFIC SCIMED, INC., priority 2023, published 2025)

System: heparinized bovine blood
Assay: In-vitro clot weight on drug coated PET fabric disks in heparinized bovine blood
Conditions: PVDF-HFP/drug 90/10 dip coated PET disks, 37° C., ACT about 190, FIG. 18
Experimental: A solution of PVDF-HFP and DOAC (direct oral anticoagulant) was prepared in 80/20 acetone/DMSO (wt/wt). The PVDF-HFP drug ratio was 90/10 (wt/wt) and the solution solids was 0.7%. […] diameter WM PET fabric disks were dip coated into the polymer/drug solution at a dip speed of […]. The coated disks were dried for […] at 125° C. in a convection oven. The drug coated disks and PVDF-HFP only control disks were placed in cups containing heparinized bovine blood adjusted to an ACT of about 190 using protamine. The cups were placed on an orbital shaker incubator at 37° C. and disks were removed at various time points and imaged. The disks were then dried and weighed to determine clot wt.

Structure (SMILES) | thrombus (clot weight) compared to the PVDF-HFP coated control
COc1ccc(-n2nc(C(N)=O)c3c2C(=O)N(c2ccc(N4CCCCC4=O)cc2)CC3)cc1 [Apixaban] | significantly less thrombus
O=C(NC[C@H]1CN(c2ccc(N3CCOCC3=O)cc2)C(=O)O1)c1ccc(Cl)s1 [Rivaroxaban, 5-Chloro-N-({(5S)-2-oxo-3-[4-(3-oxo-4-morpholinyl)phenyl]-1,3-oxazolidin-5-yl}methyl)-2-thiophenecarboxamide] | significantly less thrombus
